Values quoted from earlier work in US10206391B2, “Strobilurin formulations” (priority 2011, dated 2019).
In brackets after ≈: the same amount, converted by molar mass. Like-named read-outs stand apart in the source and are kept apart here. One block for each molecule: values may come before it.

What was measured:
[1] = not given; remark: listed apart in the source
[2] = not given; remark: listed apart in the source
[3] = not given; remark: listed apart in the source

KOW logP (pH 6.5): logP = 3.59
DT50 for aqueous photolysis ([2]; water, pH 7): DT50 for aqueous photolysis 30 days, pH7
Solubility in DMF ([3]; 20° C.): 200 to 250 mg/mL
Solubility in acetone ([3]; 20° C.): 67 to 80 mg/mL
Solubility in acetonitrile ([3]; 20° C.): 50 to 57 mg/mL
Solubility in dichloromethane ([3]; 20° C.): > 250 mg/mL
Solubility in ethyl acetate ([3]; 20° C.): 33 to 40 mg/mL
Solubility in methanol ([3]; 20° C.): 20 to 25 mg/mL
Solubility in toluene ([3]; 20° C.): 20 to 25 mg/mL
Solubility in water ([3]; pH 5.7, 20° C.): 0.0043 mg/mL (≈ 0.0132 mM)
Solubility in water ([3]; pH 8.0, 20° C.): 0.0035 mg/mL (≈ 0.0107 mM)
Compound: CNC(=O)/C(=N/OC)c1ccccc1COc1cc(C)ccc1C [Dimoxystrobin, (E)-2-(methoxyimino)-N-methyl-2-[α-(2,5-xylyloxy)-o-tolyl]acetamide]
Metabolic stability in plants and xylem systemicity (in words) (plants; plant tissues): metabolically sufficiently stable in plants and show a pronounced xylem systemicity
Time stable in aqueous solution ([1]; pH 4-9, 50° C.): Stable >30 d in aqueous solution at pH 4-9, 50 °C
Solubility in isopropanol ([3]; 20° C.): isopropanol, n-heptane, n-octanol and olive oil all <10 g/l
Solubility in n-heptane ([3]; 20° C.): isopropanol, n-heptane, n-octanol and olive oil all <10 g/l
Solubility in n-octanol (octanol) ([3]; 20° C.): isopropanol, n-heptane, n-octanol and olive oil all <10 g/l
Solubility in olive oil ([3]; 20° C.): isopropanol, n-heptane, n-octanol and olive oil all <10 g/l

Compound: CC1(c2ccc(Oc3ccccc3)cc2)OC(=O)N(Nc2ccccc2)C1=O (centres unmarked) [Famoxadone, 3-anilino-5-methyl-5-(4-phenoxyphenyl)-1,3-oxazolidine-2,4-dione]
KOW logP (pH 7): logP = 4.65
DT50 in water with light ([1]; pH 5, 25° C.): 4.6 d (pH 5, 25° C.).
DT50 in water with no light ([1]; pH 5, 25° C.): 41 days
DT50 in water with no light ([1]; pH 7, 25° C.): 2 days
DT50 in water with no light ([1]; pH 9, 25° C.): 0.0646 d (pH 9) (25° C.); in water with light, DT50
DT50 for aqueous photolysis ([2]; pH 5): 4.6 days
DT50 for aqueous photolysis ([2]; water, pH 7): 1.9 days

Compound: CO/N=C(/C1=NOCCO1)c1ccccc1Oc1ncnc(Oc2ccccc2Cl)c1F [Fluxastrobin, (E)-{2-[6-(2-chlorophenoxy)-5-fluoropyrimidin-4-yloxy]phenyl}(5,6-dihydro-1,4,2-dioxazin-3-yl)methanone O-methyloxime]
KOW logP (20° C.): logP = 2.86
Metabolic stability in plants and xylem systemicity (in words) (plants; plant tissues): metabolically sufficiently stable in plants and show a pronounced xylem systemicity
Hydrolysis DT50 ([1]; pH 4, 7 and 9, 50° C.): Hydrolysis DT50 >1 y (pH 4, 7 and 9, 50° C.);
Photolytic stability DT50 ([2]; sterile aqueous phosphate buffer, pH 7): DT50 3.8-4.1 days in sterile aqueous phosphate
Photolytic stability DT50 ([2]; under solar summer conditions, Phoenix AZ, USA in June): buffer, pH 7; 19- 22 days under solar summer
Solubility in dichloromethane ([3]; 20° C.): > 250 mg/mL
Solubility in isopropanol ([3]; 20° C.): 6.7 mg/mL (≈ 14.6 mM)
Solubility in n-heptane ([3]; 20° C.): 0.04 mg/mL (≈ 0.0872 mM)
Solubility in xylene ([3]; 20° C.): 38.1 mg/mL (≈ 83 mM)
Solubility in water ([3]; pH 7, 20° C.): 0.00229 mg/mL (≈ 0.00499 mM)
Solubility in water ([3]; unbuffered, 20° C.): 0.00256 mg/mL (≈ 0.00558 mM)

Compound: CO/N=C(/C(=O)OC)c1ccccc1COc1ccccc1C [Kresoxim-methyl, methyl(E)-methoxyimino[2-(o-tolyloxymethyl)phenyl]acetate]
Stability (in words) ([1]; pH 5, text wrapped over r19-r20 reads 'relatively stable at pH 5'): stable at pH 5.
Hydrolysis DT50 ([1]; pH 7): 816 h
Hydrolysis DT50 ([1]; pH 9): 7 h
DT50 for aqueous photolysis ([2]; water, pH 7): Photolysis DT50 18.2 days, pH7

KOW logP (20° C.): logP = 2.36
DT50 for aqueous photolysis ([2]; water, pH 7): Photolysis DT50 0.8 days, pH7
Solubility in water ([3]; 20° C.): water 80.6 mg/l (20° C.).
Compound: CNC(=O)/C(=N/OC)c1ccccc1CO/N=C(C)/C(=N/OC)C(/C)=N/OC [Orysastrobin, 2[(E)-methoxyimino]-2-[(3E,6E)-2-{5-[(E)-methoxyimino]-4,6-dimethyl-2,8-dioxa-3,7-diazanona-3,6-dienyl}phenyl]-N-methylacetamide]

Compound: CO/C=C(/C(=O)OC)c1ccccc1COc1cccc(C(F)(F)F)n1 [Picoxystrobin, methyl(E)-3-methoxy-2-[2-(6-trifluoromethyl-2-pyridyloxymethyl)phenyl]acrylate]
Metabolic stability in plants and xylem systemicity (in words) (plants; in vivo): metabolically sufficiently stable in plants and show a pronounced xylem systemicity
DT50 ([1]; pH 9, 50° C.): ~15 days
DT50 for aqueous photolysis ([2]; water, pH 7): DT50 for aqueous photolysis 21 days, pH7

Compound: COC(=O)N(OC)c1ccccc1COc1ccn(-c2ccc(Cl)cc2)n1 [Pyraclostrobin, methyl N-{2-[1-(4-chlorophenyl)pyrazol-3-yloxymethyl]phenyl}(N-methoxy)carbamate]
Time stable ([1]; pH 5-7, 25° C.): Stable >30 d (pH 5-7, 25° C.).
DT50 for aqueous photolysis ([2]; water, pH 7): Photolysis DT50 in water 1.7 days, pH7
Solubility in acetone ([3]; 20° C.): acetonitrile, dichloromethane and toluene >500 (all g/l
Solubility in acetonitrile ([3]; 20° C.): acetonitrile, dichloromethane and toluene >500 (all g/l
Solubility in dichloromethane ([3]; 20° C.): acetonitrile, dichloromethane and toluene >500 (all g/l
Solubility in ethyl acetate ([3]; 20° C.): acetonitrile, dichloromethane and toluene >500 (all g/l
Solubility in isopropanol ([3]; 20° C.): 30.0 mg/mL (≈ 77.4 mM)
Solubility in methanol ([3]; 20° C.): methanol 100.8, acetone, ethyl acetate, g/l
Solubility in n-heptane ([3]; 20° C.): 3.7 mg/mL (≈ 9.54 mM)
Solubility in n-octanol (octanol) ([3]; 20° C.): 24.2 mg/mL (≈ 62.4 mM)
Solubility in olive oil ([3]; 20° C.): 28.0 mg/mL (≈ 72.2 mM)
Solubility in toluene ([3]; 20° C.): acetonitrile, dichloromethane and toluene >500 (all g/l

Compound: CO/N=C(/C(=O)OC)c1ccccc1CO/N=C(\C)c1cccc(C(F)(F)F)c1 [Trifloxystrobin, methyl(E)-methoxyimino-{(E)-α-[1-(α,α,α-trifluoro-m-tolyl)ethylideneaminooxy]-o-tolyl}acetate]
Stability to hydrolysis (in words) ([1]; pH 5): stable
Hydrolysis DT50 ([1]; pH 7, 20° C.): 11.4 w
Hydrolysis DT50 ([1]; pH 9, 20° C.): 27.1 h
DT50 for aqueous photolysis ([2]; pH 5): 1.1 days
DT50 for aqueous photolysis ([2]; water, pH 7): 2.7 days
